In paper PMC11726634, “Probing the Histamine H1 Receptor Binding Site to Explore Ligand Binding Kinetics” (Journal of Medicinal Chemistry, 2024):
Structures can show the parent of a compound that is named as a salt. Where two headings read alike, the source gives them in different places.

Experiments:
[1] = target: T1, human H1R (Homo sapiens, UniProt P35367); experiment: [3H]-mepyramine competition binding (radioligand displacement, 4 h) on HEK293T cell homogenates; settings: for pKi: [3H]mepyramine displacement curves after 4 h incubation, HEK293T cell homogenate expressing H1R, 25 °C, mean and SEM, N ≥ 3
T1 construct: expressed in transfected cells; host or cells: HEK293T cells, transient transfection with pcDEF3, used as cell homogenate
Method: Protein content of membrane homogenates was determined using a BCA protein assay. […] Membrane preparation, termination of the binding reaction and quantifying radioactivity as described here, were performed for all binding experiments.Total binding and nonspecific binding (i.e., in the presence of mianserin) was analyzed by nonlinear regression using eqs 1 (nonspecific binding) and 2 (total binding).
These values were converted to Ki values using the Cheng–Prusoff equation.[24]

[2] = target: T1, human H1R; experiment: Competition association binding with [3H]-mepyramine (Motulsky and Mahan model); settings: for KE (kinetic efficiency = RT/N heavy atoms): RT divided by number of heavy atoms; for pKD,calc: calculated from kon and koff of individual experiments
Method: Binding in the presence of mianserin was assumed to be the baseline (i.e., t = 0 min). Binding over time was baseline corrected and then analyzed by nonlinear regression using the Motulsky and Mahan model[25] (eq 5). This model assumes that both the radioligand and the unlabeled ligand bind competitively to the same binding site according to a one-step binding mechanism.

[3] = competitive binding of [3H]mepyramine over time, unlabeled ligand at ±10 times Ki, 25 °C, mean and SEM, N ≥ 3, read-out: koff (converted)
[4] = competitive binding of [3H]mepyramine over time, unlabeled ligand at ±10 times Ki, 25 °C, mean and SEM, N ≥ 3
[5] = compared with fragment 1 (RT 2.0 min)

T1 sequence (P35367 whole entry): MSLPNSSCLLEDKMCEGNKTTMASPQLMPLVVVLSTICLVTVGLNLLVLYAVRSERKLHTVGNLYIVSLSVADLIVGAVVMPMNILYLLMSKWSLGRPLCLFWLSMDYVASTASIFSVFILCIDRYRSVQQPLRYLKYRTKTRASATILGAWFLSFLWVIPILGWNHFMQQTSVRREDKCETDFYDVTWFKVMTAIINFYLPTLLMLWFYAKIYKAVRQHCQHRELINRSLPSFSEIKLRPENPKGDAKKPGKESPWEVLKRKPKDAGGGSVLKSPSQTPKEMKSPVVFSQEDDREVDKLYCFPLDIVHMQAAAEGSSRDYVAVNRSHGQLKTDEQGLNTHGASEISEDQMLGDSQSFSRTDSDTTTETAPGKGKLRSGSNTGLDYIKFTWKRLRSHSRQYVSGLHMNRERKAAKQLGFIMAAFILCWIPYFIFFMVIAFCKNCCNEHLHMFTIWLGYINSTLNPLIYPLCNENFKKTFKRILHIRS

| Compound | pKi [1] | KE (kinetic efficiency = RT/N heavy atoms) [2] | pKD,calc ([2]; mean and SEM, N ≥ 3) | koff [2, 3] [s⁻¹] | kon ([2]; read-out: kon (converted)) [M⁻¹ s⁻¹] | increase in RT compared to first-generation analog [2] [fold] | koff ([2]; read-out: koff (converted)) [s⁻¹] | lower binding affinity relative to 1 ([1]; compared with 1) [fold] | koff [2, 4] [s⁻¹] | kon [2, 4] | increase in RT relative to 1 [2, 5] [fold] | increase in RT relative to 1 [2] [fold] | decrease of association rate constant (kon) relative to 1 ([2]; compared with 1) [fold] |
| --- | --- | --- | --- | --- | --- | --- | --- | --- | --- | --- | --- | --- | --- |
| CN1CCC(Oc2c(Cc3ccccc3)cccc2C(=O)O)CC1 [3a, 3-Benzyl-2-((1-methylpiperidin-4-yl)oxy)benzoic Acid] | 6.2 ± 0.1 | 0.18 | 6.3 ± 0.0 | 0.004 | 8330 |  |  |  |  |  |  |  |  |
| c1ccc(Cc2ccccc2OC2CCN(CCCCc3nnn[nH]3)CC2)cc1 [compound 27, 1-(4-(1H-Tetrazol-5-yl)butyl)-4-(2-benzylphenoxy)piperidine] | 8.1 ± 0.1 | 1.66 | 8.2 ± 0.02 | 0.00035 | 61700 |  |  |  |  |  |  |  |  |
| CN(C)CC/C=C1/c2ccccc2COc2ccc(CC(=O)O)cc21 [Olopatadine, olopatadine, reference compound] |  |  |  |  |  | 7 |  |  |  |  |  |  |  |
| CN1CCC(Oc2c(/C=C/C(=O)O)cccc2Cc2ccccc2)CC1 [3c, (E)-3-(3-Benzyl-2-((1-methylpiperidin-4-yl)oxy)phenyl)acrylic Acid] | 6.6 ± 0.1 | 0.12 | 6.7 ± 0.0 |  | 26700 |  |  |  |  |  |  |  |  |
| CN1CCC(Oc2cc(C(=O)O)ccc2Cc2ccccc2)CC1 [2a, 4-Benzyl-3-((1-methylpiperidin-4-yl)oxy)benzoic Acid] | <5 | 0.05 | 4.8 ± 0.1 | 0.0167 | 1000 |  |  |  |  |  |  |  |  |
| COc1ccc(Cc2ccccc2)c(OC2CCN(C)CC2)c1 [2e, 4-(2-Benzyl-5-methoxyphenoxy)-1-methylpiperidine Fumarate] | 7.8 ± 0.1 | 0.09 | 8.1 ± 0.1 |  | 1e+06 |  | 0.00833 |  |  |  |  |  |  |
| O=C(O)CCCN1CCC(Oc2ccccc2Cc2ccccc2)CC1 [4b, 4-(4-(2-Benzylphenoxy)piperidin-1-yl)butanoic Acid Hydrochloride] | 7.6 ± 0.1 | 0.38 | 7.5 ± 0.0 | 0.00167 | 48300 |  |  |  |  |  |  |  |  |
| CN1CCC(Oc2c(CO)cccc2Cc2ccccc2)CC1 [3d, (3-Benzyl-2-((1-methylpiperidin-4-yl)oxy)phenyl)methanol] | 7.4 ± 0.0 | 0.06 | 7.6 ± 0.1 | 0.0122 | 450000 |  |  | 10 |  |  |  |  |  |
| 2-(3-Benzyl-2-((1-methylpiperidin-4-yl)oxy)phenyl)acetic Acid [3b] | 7.4 ± 0.1 | 0.48 | 7.4 ± 0.0 |  |  |  |  |  | 0.00138 ± 6.7e-05 | 2.08 ± 0.10 10^6· M^−1·min^−1 |  |  |  |
| O=C(O)CCCCCCN1CCC(Oc2ccccc2Cc2ccccc2)CC1 [4e, 7-(4-(2-Benzylphenoxy)piperidin-1-yl)heptanoic Acid Hydrochloride] | 7.7 ± 0.2 | 0.45 | 7.5 ± 0.0 | 0.00127 | 41700 |  |  |  |  |  |  |  |  |
| O=C(O)CCCCN1CCC(Oc2ccccc2Cc2ccccc2)CC1 [4c, 5-(4-(2-Benzylphenoxy)piperidin-1-yl)pentanoic Acid Hydrochloride] | 7.8 ± 0.1 | 0.85 | 7.9 ± 0.1 | 0.00075 | 53300 |  |  |  |  |  | > 10 |  |  |
| CN1CCC(Oc2cc(CO)ccc2Cc2ccccc2)CC1 [2d, (4-Benzyl-3-((1-methylpiperidin-4-yl)oxy)phenyl)methanol Hemifumarate] | 8.4 ± 0.1 | 0.17 | 8.6 ± 0.0 |  | 1.63e+06 |  | 0.00417 |  |  |  |  | 2 | 2 |
| O=C(O)CCN1CCC(Oc2ccccc2Cc2ccccc2)CC1 [4a, 3-(4-(2-Benzylphenoxy)piperidin-1-yl)propanoic Acid Hydrochloride] | 7.5 ± 0.1 | 0.36 | 7.4 ± 0.0 | 0.00183 | 48300 |  |  |  |  |  |  |  |  |
| CN1CCC(Oc2cc(/C=C/C(=O)O)ccc2Cc2ccccc2)CC1 [2c, (E)-3-(4-Benzyl-3-((1-methylpiperidin-4-yl)oxy)phenyl)acrylic Acid] | 6.5 ± 0.1 | 0.69 | 7.0 ± 0.0 | 0.000917 | 10300 |  |  |  |  |  | 9 |  |  |
| O=C(O)CCCCCCCN1CCC(Oc2ccccc2Cc2ccccc2)CC1 [4f, 8-(4-(2-Benzylphenoxy)piperidin-1-yl)octanoic Acid Hydrochloride] | 7.6 ± 0.1 | 0.50 | 7.5 ± 0.0 | 0.00115 | 39500 |  |  |  |  |  |  |  |  |
| O=C(O)CCCCCN1CCC(Oc2ccccc2Cc2ccccc2)CC1 [4d, 6-(4-(2-Benzylphenoxy)piperidin-1-yl)hexanoic Acid Hydrochloride] | 7.8 ± 0.0 | 0.61 | 7.7 ± 0.1 | 0.001 | 66700 |  |  |  |  |  |  |  |  |
| CN1CCC(Oc2cc(CC(=O)O)ccc2Cc2ccccc2)CC1 [2b, 2-(4-Benzyl-3-((1-methylpiperidin-4-yl)oxy)phenyl)acetic Acid] | 6.9 ± 0.1 | 0.24 | 6.8 ± 0.2 | 0.00283 | 21700 |  |  |  |  |  |  |  |  |
